# Data published in patent US4205163A, “Tylosin derivatives” (Sanraku-Ocean Co., Ltd., priority 1977, dated 1980).
# Tests used:
# Assay in all cases: antimicrobial activity, broth dilution method
# Assay type in all cases: cell-based
# [1] = test system: Staphylococcus aureus FDA-209P; settings: Staphylococcus aureus FDA-209P, broth dilution; for MIC: Staphylococcus aureus, FDA209P, read-out: minimum inhibitory concentration (MIC)
# Method: (§1) Antimicrobial activity of the new antibiotics according to the present invention was measured on various pathogenic microorganisms by the broth dilution mehtod. Tab. […] The new antibiotics show a similar antimicrobial spectrum to that of tylosin as shown in Tab. 4. All the compounds have an excellent antimicrobial activity mainly on gram-positive bacteria. […] Test microorganisms with an asterisk mark (*) in Tab. 4 are all drug-resistant strains that were clinically isolated. More in detail, Staphylococcus aureus MS-8710 is resistant to tylosin, penicillin, tetracycline, erythromycin and leucomycin. Staphylococcus aureus MS-9931 is resistant to tylosin, penicillin, erythromycin, tetracycline, leucomycin, spiramycin and josamycin. And also Streptococcus piogenes is resistant to tylosin, erythromycin, oleandomycin and leucomycin.
# [2] = test system: Staphylococcus aureus MS-9931; settings: Staphylococcus aureus MS-9931, drug-resistant clinical isolate; for MIC: MS9931, read-out: minimum inhibitory concentration (MIC)
# Method: as §1
# [3] = test system: Bacillus cereus ATCC 9634; settings: broth dilution; for MIC: Bacillus cereus, ATCC9634, Bacillus cereus ATCC 9634, read-out: minimum inhibitory concentration (MIC)
# Method: as §1
# [4] = test system: Staphylococcus aureus MS-8710; settings: for MIC: Staphylococcus aureus, MS8710, Staphylococcus aureus MS-8710, drug-resistant clinical isolate, read-out: minimum inhibitory concentration (MIC)
# Method: as §1
# [5] = test system: Sarcina lutea ATCC 9341; settings: for MIC: Micrococcus luteus, ATCC9341, Sarcina lutea ATCC 9341, read-out: minimum inhibitory concentration (MIC)
# Method: as §1
# [6] = test system: Staphylococcus aureus MS-9937; settings: Staphylococcus aureus MS-9937, drug-resistant clinical isolate; for MIC: MS9937, read-out: minimum inhibitory concentration (MIC)
# Method: as §1
# [7] = test system: Streptococcus pyogenes MH-771; settings: for MIC: Streptococcus pyogenes, MH771, Streptococcus pyogenes MH-771, drug-resistant clinical isolate, read-out: minimum inhibitory concentration (MIC)
# Method: as §1
# [8] = test system: Staphylococcus aureus SMITH; settings: Staphylococcus aureus SMITH, broth dilution; for MIC: Staphylococcus aureus, read-out: minimum inhibitory concentration (MIC)
# Method: as §1
Compound,MIC [1] [µg/mL],MIC [2] [µg/mL],MIC [3] [µg/mL],MIC [4] [µg/mL],MIC [5] [µg/mL],MIC [6] [µg/mL],MIC [7] [µg/mL],MIC [8] [µg/mL],minimum inhibitory concentration (MIC) [1] [µg/mL],minimum inhibitory concentration (MIC) [2] [µg/mL],minimum inhibitory concentration (MIC) ([3]; Bacillus cereus ATCC 9634) [µg/mL],"minimum inhibitory concentration (MIC) ([4]; Staphylococcus aureus MS-8710, drug-resistant clinical isolate) [µg/mL]",minimum inhibitory concentration (MIC) ([5]; Sarcina lutea ATCC 9341) [µg/mL],minimum inhibitory concentration (MIC) [6] [µg/mL],"minimum inhibitory concentration (MIC) ([7]; Streptococcus pyogenes MH-771, drug-resistant clinical isolate) [µg/mL]",minimum inhibitory concentration (MIC) [8] [µg/mL]
"CCC1OC(=O)CC(OC(C)=O)C(C)C(OC2OC(C)C(OC3CC(C)(O)C(O)C(C)O3)C(N(C)C)C2OC(C)=O)C(CC=O)CC(C)C(=O)C=CC(C)=CC1COC1OC(C)C(O)C(OC)C1OC (stereo not shown) [3,2'-diacetyltylosin, reference compound]",1.56,200,1.56,> 200,0.39,200,> 200,1.56,,,,,,,,
"CCCCCCCC(=O)OC1C(C)OC(OC2C(C)OC(OC3C(CC=O)CC(C)C(=O)C=CC(C)=CC(COC4OC(C)C(O)C(OC)C4OC)C(CC)OC(=O)CC(O)C3C)C(O)C2N(C)C)CC1(C)O (stereo not shown) [Compound 9, 4""-n-caprylyl(or n-octanoyl)tylosin]",0.78,25,1.56,25,0.39,25,25,0.78,,,,,,,,
"CCC1OC(=O)CC(OC(C)=O)C(C)C(OC2OC(C)C(OC3CC(C)(O)C(OC(=O)Cc4cccc5ccccc45)C(C)O3)C(N(C)C)C2O)C(CC=O)CC(C)C(=O)C=CC(C)=CC1COC1OC(C)C(O)C(OC)C1OC (stereo not drawn) [Compound 23, 3-acetyl-4""-α-naphthylacetyltylosin]",0.78,25,0.78,25,0.39,50,25,0.78,,,,,,,,
"CCC1OC(=O)CC(OC(C)=O)C(C)C(OC2OC(C)C(OC3CC(C)(O)C(OC(=O)CCc4ccccc4)C(C)O3)C(N(C)C)C2O)C(CC=O)CC(C)C(=O)C=CC(C)=CC1COC1OC(C)C(O)C(OC)C1OC (stereo not drawn) [Compound 25, 3-acetyl-4""-β-phenylpropionyltylosin]",1.56,50,0.78,50,0.39,50,25,0.78,,,,,,,,
"CCC1OC(=O)CC(O)C(C)C(OC2OC(C)C(OC3CC(C)(O)C(O)C(C)O3)C(N(C)C)C2OC(C)=O)C(CC=O)CC(C)C(=O)C=CC(C)=CC1COC1OC(C)C(O)C(OC)C1OC (stereo not shown) [2'-acetyltylosin, reference compound]",1.56,200,1.56,> 200,0.39,200,> 200,1.56,,,,,,,,
"CCC1OC(=O)CC(O)C(C)C(OC2OC(C)C(OC3CC(C)(O)C(O)C(C)O3)C(N(C)C)C2OC(C)=O)C(CC=O)CC(C)C(=O)C=CC(C)=CC1COC1OC(C)C(OC(=O)CCl)C(OC)C1OC (stereo not shown) [Compound 1, 2'-acetyl-4'""-monochloracetyltylosin]",1.56,200,1.56,> 200,0.78,200,200,1.56,,,,,,,,
"CCC1OC(=O)CC(OC(C)=O)C(C)C(OC2OC(C)C(OC3CC(C)(O)C(OC(=O)C(OC(C)=O)c4ccccc4)C(C)O3)C(N(C)C)C2O)C(CC=O)CC(C)C(=O)C=CC(C)=CC1COC1OC(C)C(O)C(OC)C1OC [Compound 19, 3-acetyl-4""-D-(α-acetoxyphenylacetyl)tylosin]",1.56,100,0.78,100,0.78,100,25,0.78,,,,,,,,
"CCC1OC(=O)CC(OC(C)=O)C(C)C(OC2OC(C)C(OC3CC(C)(O)C(OC(=O)C(O)Cc4ccccc4)C(C)O3)C(N(C)C)C2O)C(CC=O)CC(C)C(=O)C=CC(C)=CC1COC1OC(C)C(O)C(OC)C1OC [Compound 26, 3-acetyl-4""-L-[(α-hydroxy-β-phenyl)propionyl]tylosin]",0.78,50,0.78,50,0.39,50,12.5,0.78,,,,,,,,
"CCCCCC(=O)OC1C(C)OC(OC2C(C)OC(OC3C(CC=O)CC(C)C(=O)C=CC(C)=CC(COC4OC(C)C(O)C(OC)C4OC)C(CC)OC(=O)CC(OC(C)=O)C3C)C(O)C2N(C)C)CC1(C)O (stereo not shown) [Compound 8, 3-acetyl-4""-n-caproyl(or n-hexanoyl)tylosin]",0.39,25,0.78,25,0.39,25,6.25,0.78,,,,,,,,
"3-acetyl-4""-(1-imidazolyl)propionyltylosin [Compound 33]",,,,,,,,,1.56,50,1.56,25,0.78,50,12.5,1.56
"CCC1OC(=O)CC(O)C(C)C(OC2OC(C)C(OC3CC(C)(O)C(O)C(C)O3)C(N(C)C)C2OC(C)=O)C(CC=O)CC(C)C(=O)C=CC(C)=CC1COC1OC(C)C(OC(=O)COc2ccccc2)C(OC)C1OC (stereo not shown) [Compound 5, 2'-acetyl-4'""-phenoxyacetyltylosin]",0.78,100,0.78,100,0.39,100,100,0.78,,,,,,,,
"CCC1OC(=O)CC(O)C(C)C(OC2OC(C)C(OC3CC(C)(O)C(OC(=O)C(C)Oc4ccccc4)C(C)O3)C(N(C)C)C2O)C(CC=O)CC(C)C(=O)C=CC(C)=CC1COC1OC(C)C(O)C(OC)C1OC (stereo not drawn) [Compound 46, 4""-α-phenoxypropionyltylosin]",0.78,25,0.39,25,0.19,50,12.5,0.39,,,,,,,,
"CCC1OC(=O)CC(OC(C)=O)C(C)C(OC2OC(C)C(OC3CC(C)(O)C(OC(=O)CSc4ccncc4)C(C)O3)C(N(C)C)C2O)C(CC=O)CC(C)C(=O)C=CC(C)=CC1COC1OC(C)C(O)C(OC)C1OC (stereo not shown) [Compound 42, 3-acetyl-4""-(4-pyridyl)thioacetyltylosin]",0.39,12.5,0.39,6.25,0.19,6.25,3.13,0.39,,,,,,,,
"CCC1OC(=O)CC(O)C(C)C(OC2OC(C)C(OC3CC(C)(O)C(OC(=O)Cc4ccc([N+](=O)[O-])cc4)C(C)O3)C(N(C)C)C2O)C(CC=O)CC(C)C(=O)C=CC(C)=CC1COC1OC(C)C(O)C(OC)C1OC (stereo not shown) [Compound 14, 4""-(4-nitrophenyl)acetyltylosin]",0.39,6.25,0.39,6.25,0.19,6.25,3.13,0.39,,,,,,,,
"CCC1OC(=O)CC(O)C(C)C(OC2OC(C)C(OC3CC(C)(O)C(OC(=O)COc4ccc5ccccc5c4)C(C)O3)C(N(C)C)C2O)C(CC=O)CC(C)C(=O)C=CC(C)=CC1COC1OC(C)C(O)C(OC)C1OC (stereo not drawn) [Compound 47, 4""-β-napthoxyacetyltylosin]",0.78,25,0.78,25,0.19,25,12.5,0.78,,,,,,,,
"CCC1OC(=O)CC(OC(C)=O)C(C)C(OC2OC(C)C(OC3CC(C)(O)C(OC(=O)C(Cc4ccccc4)OC(C)=O)C(C)O3)C(N(C)C)C2O)C(CC=O)CC(C)C(=O)C=CC(C)=CC1COC1OC(C)C(O)C(OC)C1OC [Compound 27, 3-acetyl-4""-L-[(α-acetoxy-β-phenyl)propionyl]tylosin]",0.78,50,0.78,50,0.39,50,25,0.78,,,,,,,,
"CCC1OC(=O)CC(OC(C)=O)C(C)C(OC2OC(C)C(OC3CC(C)(O)C(OC(=O)C(Cc4ccc(OC(C)=O)cc4)OC(C)=O)C(C)O3)C(N(C)C)C2O)C(CC=O)CC(C)C(=O)C=CC(C)=CC1COC1OC(C)C(O)C(OC)C1OC (stereo not drawn) [Compound 28, 3-acetyl-4""-[α-acetoxy-β-(4-acetoxyphenyl)propionyl]tylosin]",1.56,50,1.56,25,0.78,25,25,1.56,,,,,,,,
